According to PMC10518257 (Nature Cancer, 2023):
“And” between values parts separate entries of the source, which are not always exact repeats. Identical values can stand only once.

Columns and labels:
[1] = target: T1, panel of 255 (vepafestinib) or 256 (all other inhibitors) recombinant kinases (Homo sapiens, UniProt P04629); assay: Kinase selectivity profiling at a single concentration (Carna Biosciences); type: biochemical; details: 17 nM
T1 construct: purchased Carna Biosciences

[2] = target: T2, panel of 255 (vepafestinib) or 256 (all other inhibitors) recombinant kinases (Homo sapiens, UniProt P07947); assay: as above; type: biochemical; details: 17 nM
T2 construct: purchased Carna Biosciences

[3] = target: T3, panel of 255 (vepafestinib) or 256 (all other inhibitors) recombinant kinases (Homo sapiens, UniProt P07949); assay: as above; type: biochemical
T3 construct: purchased Carna Biosciences
T3 sequence (P07949 29-1114): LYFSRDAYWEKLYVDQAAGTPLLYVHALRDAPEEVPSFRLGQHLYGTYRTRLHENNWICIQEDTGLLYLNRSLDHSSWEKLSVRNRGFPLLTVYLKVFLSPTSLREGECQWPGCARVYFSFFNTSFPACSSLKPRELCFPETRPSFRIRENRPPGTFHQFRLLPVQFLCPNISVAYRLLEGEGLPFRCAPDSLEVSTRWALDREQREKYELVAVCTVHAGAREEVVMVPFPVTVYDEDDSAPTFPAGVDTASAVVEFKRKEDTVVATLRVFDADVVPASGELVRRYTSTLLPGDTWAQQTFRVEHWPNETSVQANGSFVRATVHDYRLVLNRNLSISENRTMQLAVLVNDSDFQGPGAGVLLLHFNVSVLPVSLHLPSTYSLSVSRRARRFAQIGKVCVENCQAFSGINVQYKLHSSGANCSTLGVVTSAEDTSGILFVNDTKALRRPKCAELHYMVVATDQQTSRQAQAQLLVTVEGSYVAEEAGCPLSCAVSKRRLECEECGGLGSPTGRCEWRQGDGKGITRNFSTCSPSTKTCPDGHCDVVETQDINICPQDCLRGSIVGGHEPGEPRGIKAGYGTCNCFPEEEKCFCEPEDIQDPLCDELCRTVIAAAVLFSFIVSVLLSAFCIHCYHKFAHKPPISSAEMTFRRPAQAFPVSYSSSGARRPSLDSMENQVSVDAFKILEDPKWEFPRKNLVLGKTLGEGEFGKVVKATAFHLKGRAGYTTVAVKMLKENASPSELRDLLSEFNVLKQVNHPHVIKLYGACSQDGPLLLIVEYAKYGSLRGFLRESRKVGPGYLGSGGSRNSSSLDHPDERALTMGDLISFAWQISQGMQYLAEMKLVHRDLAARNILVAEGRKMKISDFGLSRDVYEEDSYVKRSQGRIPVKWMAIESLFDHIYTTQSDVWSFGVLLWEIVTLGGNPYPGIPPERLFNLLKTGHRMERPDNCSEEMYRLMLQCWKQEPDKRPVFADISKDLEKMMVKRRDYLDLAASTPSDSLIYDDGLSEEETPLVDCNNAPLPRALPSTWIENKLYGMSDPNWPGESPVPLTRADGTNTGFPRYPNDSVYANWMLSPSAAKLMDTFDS

[4] = target: T4, panel of 255 (vepafestinib) or 256 (all other inhibitors) recombinant kinases (Homo sapiens, UniProt P09619); assay: as above; type: biochemical
T4 construct: purchased Carna Biosciences

[5] = target: T5, panel of 255 (vepafestinib) or 256 (all other inhibitors) recombinant kinases (Homo sapiens, UniProt P11362); assay: as above; type: biochemical
T5 construct: purchased Carna Biosciences
T5 sequence (P11362 22-822): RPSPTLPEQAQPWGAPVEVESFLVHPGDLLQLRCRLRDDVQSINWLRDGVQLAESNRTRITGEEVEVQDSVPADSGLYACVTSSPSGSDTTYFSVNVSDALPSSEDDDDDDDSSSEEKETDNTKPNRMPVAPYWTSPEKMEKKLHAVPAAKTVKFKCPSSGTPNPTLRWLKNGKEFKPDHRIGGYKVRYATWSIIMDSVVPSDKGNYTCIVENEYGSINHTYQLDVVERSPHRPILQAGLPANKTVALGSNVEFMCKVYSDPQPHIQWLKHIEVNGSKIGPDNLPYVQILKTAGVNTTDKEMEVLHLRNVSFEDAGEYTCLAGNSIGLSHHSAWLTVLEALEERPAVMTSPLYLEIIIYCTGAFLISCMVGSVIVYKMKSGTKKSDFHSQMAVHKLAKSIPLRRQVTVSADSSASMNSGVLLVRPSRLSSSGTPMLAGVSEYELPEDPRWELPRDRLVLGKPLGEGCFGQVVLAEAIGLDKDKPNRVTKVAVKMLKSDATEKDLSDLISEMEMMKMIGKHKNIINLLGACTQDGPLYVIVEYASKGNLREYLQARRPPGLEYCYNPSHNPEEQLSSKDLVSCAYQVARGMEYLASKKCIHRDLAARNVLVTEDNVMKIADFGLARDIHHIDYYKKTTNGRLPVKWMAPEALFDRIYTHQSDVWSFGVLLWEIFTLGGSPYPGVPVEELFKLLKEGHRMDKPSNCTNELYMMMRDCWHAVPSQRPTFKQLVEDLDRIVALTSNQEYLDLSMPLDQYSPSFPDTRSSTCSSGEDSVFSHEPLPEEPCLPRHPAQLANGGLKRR

[6] = target: T6, panel of 255 (vepafestinib) or 256 (all other inhibitors) recombinant kinases (Homo sapiens, UniProt P21802); assay: as above; type: biochemical
T6 construct: purchased Carna Biosciences
T6 sequence (P21802 22-821): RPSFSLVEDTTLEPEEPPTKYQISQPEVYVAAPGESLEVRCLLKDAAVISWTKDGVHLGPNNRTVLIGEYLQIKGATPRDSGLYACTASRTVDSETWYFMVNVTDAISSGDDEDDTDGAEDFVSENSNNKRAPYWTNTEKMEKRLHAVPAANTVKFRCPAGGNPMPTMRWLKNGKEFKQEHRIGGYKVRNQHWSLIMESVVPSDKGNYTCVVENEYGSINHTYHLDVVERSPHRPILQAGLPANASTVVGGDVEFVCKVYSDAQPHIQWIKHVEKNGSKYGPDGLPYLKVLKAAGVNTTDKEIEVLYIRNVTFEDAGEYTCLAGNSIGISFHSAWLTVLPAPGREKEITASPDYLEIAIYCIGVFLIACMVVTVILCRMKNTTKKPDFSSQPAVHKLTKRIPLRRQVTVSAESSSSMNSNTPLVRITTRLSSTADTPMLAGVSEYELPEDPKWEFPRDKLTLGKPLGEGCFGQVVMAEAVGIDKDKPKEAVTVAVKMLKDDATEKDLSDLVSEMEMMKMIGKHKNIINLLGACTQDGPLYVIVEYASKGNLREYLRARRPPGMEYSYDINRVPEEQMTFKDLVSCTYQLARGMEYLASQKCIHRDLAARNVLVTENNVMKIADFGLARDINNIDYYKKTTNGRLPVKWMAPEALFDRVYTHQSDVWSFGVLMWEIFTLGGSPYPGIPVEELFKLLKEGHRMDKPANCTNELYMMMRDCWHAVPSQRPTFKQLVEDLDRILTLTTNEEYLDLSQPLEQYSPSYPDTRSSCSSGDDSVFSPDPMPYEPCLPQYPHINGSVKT

[7] = target: T7, panel of 255 (vepafestinib) or 256 (all other inhibitors) recombinant kinases (Homo sapiens, UniProt P22607); assay: as above; type: biochemical
T7 construct: purchased Carna Biosciences

[8] = target: T8, panel of 255 (vepafestinib) or 256 (all other inhibitors) recombinant kinases (Homo sapiens, UniProt P35968); assay: as above; type: biochemical; details: 17 nM
T8 construct: purchased Carna Biosciences

[9] = target: T9, panel of 255 (vepafestinib) or 256 (all other inhibitors) recombinant kinases (Homo sapiens, UniProt P36888); assay: as above; type: biochemical
T9 construct: purchased Carna Biosciences
T9 sequence (P36888 27-993): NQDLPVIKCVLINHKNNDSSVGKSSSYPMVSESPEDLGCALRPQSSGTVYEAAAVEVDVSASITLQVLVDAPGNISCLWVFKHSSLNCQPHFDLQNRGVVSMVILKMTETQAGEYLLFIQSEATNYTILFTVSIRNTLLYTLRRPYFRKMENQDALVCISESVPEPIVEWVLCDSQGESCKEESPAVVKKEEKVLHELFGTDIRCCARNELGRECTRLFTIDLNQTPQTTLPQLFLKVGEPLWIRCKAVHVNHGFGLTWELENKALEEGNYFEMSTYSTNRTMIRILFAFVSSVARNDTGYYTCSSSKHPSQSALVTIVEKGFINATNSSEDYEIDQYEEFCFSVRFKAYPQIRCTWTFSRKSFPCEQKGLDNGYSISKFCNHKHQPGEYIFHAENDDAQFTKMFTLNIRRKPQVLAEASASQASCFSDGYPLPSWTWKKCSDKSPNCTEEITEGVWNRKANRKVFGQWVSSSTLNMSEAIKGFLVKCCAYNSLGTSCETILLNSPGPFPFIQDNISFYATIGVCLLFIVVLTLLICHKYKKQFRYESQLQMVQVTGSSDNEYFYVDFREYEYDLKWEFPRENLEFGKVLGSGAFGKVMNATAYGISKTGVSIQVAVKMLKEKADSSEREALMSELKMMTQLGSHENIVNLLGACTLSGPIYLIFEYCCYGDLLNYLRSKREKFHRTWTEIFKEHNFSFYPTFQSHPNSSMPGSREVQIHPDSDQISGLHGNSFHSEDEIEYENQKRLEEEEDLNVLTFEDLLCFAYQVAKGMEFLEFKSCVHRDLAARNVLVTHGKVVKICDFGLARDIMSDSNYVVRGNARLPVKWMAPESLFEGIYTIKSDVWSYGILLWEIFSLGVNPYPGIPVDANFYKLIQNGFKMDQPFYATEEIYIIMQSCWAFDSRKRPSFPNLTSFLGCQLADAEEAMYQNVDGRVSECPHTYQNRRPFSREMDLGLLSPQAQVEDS

[10] = target: T10, panel of 255 (vepafestinib) or 256 (all other inhibitors) recombinant kinases (Homo sapiens, UniProt P52333); assay: as above; type: biochemical; details: 17 nM
T10 construct: purchased Carna Biosciences

[11] = target: T11, panel of 255 (vepafestinib) or 256 (all other inhibitors) recombinant kinases (Homo sapiens, UniProt Q08345); assay: as above; type: biochemical
T11 construct: purchased Carna Biosciences
T11 sequence (Q08345 19-913): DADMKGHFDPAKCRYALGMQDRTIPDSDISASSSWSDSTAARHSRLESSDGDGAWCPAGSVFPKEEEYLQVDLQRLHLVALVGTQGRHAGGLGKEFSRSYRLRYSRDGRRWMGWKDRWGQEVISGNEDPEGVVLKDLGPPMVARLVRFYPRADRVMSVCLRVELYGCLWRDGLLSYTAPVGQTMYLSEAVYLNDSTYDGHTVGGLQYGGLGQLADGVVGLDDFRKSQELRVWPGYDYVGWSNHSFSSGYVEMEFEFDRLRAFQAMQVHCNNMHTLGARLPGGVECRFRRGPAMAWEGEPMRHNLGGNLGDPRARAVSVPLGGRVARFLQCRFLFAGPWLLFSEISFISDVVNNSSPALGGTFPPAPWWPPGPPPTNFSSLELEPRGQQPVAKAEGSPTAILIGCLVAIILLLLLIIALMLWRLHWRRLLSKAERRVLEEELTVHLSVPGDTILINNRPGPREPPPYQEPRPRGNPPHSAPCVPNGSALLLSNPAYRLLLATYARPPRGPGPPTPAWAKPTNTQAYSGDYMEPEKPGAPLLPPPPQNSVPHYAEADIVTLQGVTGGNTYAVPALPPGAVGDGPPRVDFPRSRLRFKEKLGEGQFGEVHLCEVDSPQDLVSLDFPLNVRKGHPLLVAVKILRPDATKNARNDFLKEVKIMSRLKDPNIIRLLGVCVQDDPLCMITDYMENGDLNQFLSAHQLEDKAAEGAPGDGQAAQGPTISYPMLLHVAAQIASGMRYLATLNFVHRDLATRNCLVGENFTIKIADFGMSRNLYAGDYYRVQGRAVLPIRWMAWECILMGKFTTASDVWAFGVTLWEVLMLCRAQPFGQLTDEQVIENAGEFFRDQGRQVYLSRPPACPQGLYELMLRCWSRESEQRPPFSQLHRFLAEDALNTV

[12] = system: Ba/F3 cells expressing KIF5B–RET^G810C; assay: Growth inhibition assay in Ba/F3 cells (CellTiter-Glo, 72 h); type: cell-based; details: replicate Sets 1-3
[13] = system: Ba/F3 cells expressing KIF5B–RET^V804L; assay: as above; type: cell-based; details: replicate sets
[14] = system: HBECp53-RET cells (CCDC6-RET fusion); assay: Growth inhibition (alamarBlue, 96 h); type: cell-based, human; details: for raw viability signal (Source Data Fig. 3b-c): HBEC-RET, replicate sets; for IC50: Homo sapiens, 96 h, read-out: IC50 for Inhibition of Growth (95% CI), HBECp53-RET, alamarBlue, 96 h
[15] = target: T12, panel of 255 (vepafestinib) or 256 (all other inhibitors) recombinant kinases (Homo sapiens, UniProt O14757); assay: Kinase selectivity profiling at a single concentration (Carna Biosciences); type: biochemical; details: 22 nM
T12 construct: purchased Carna Biosciences
T12 sequence (O14757 whole entry): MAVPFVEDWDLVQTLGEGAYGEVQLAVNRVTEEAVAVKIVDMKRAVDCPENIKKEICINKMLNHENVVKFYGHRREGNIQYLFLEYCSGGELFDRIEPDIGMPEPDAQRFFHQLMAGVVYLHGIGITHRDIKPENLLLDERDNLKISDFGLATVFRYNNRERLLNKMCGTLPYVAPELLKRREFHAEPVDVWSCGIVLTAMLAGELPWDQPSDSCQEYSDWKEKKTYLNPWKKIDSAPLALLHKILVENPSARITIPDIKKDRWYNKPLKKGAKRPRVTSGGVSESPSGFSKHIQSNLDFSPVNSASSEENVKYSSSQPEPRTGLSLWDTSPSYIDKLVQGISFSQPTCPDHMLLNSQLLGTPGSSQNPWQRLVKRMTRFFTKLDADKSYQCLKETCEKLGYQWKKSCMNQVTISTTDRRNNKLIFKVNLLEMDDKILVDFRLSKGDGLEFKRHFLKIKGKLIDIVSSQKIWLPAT

[16] = target: T13, panel of 255 (vepafestinib) or 256 (all other inhibitors) recombinant kinases (Homo sapiens, UniProt P17948); assay: as above; type: biochemical; details: 22 nM
T13 construct: purchased Carna Biosciences

[17] = target: T14, panel of 255 (vepafestinib) or 256 (all other inhibitors) recombinant kinases (Homo sapiens, UniProt P54762); assay: as above; type: biochemical; details: 22 nM
T14 construct: purchased Carna Biosciences

[18] = target: T15, panel of 255 (vepafestinib) or 256 (all other inhibitors) recombinant kinases (Homo sapiens, UniProt Q06418); assay: as above; type: biochemical; details: 22 nM
T15 construct: purchased Carna Biosciences

[19] = target: T16, panel of 255 (vepafestinib) or 256 (all other inhibitors) recombinant kinases (Homo sapiens, UniProt Q15375); assay: as above; type: biochemical; details: 22 nM
T16 construct: purchased Carna Biosciences

[20] = system: ECLC5 luciferase cells implanted intracranially; assay: Intracranial efficacy study; type: in vivo, NSG mice; details: for Area Under Curve Mean: Fig. 8e (middle panel) ECLC5 luminescence; for Luminescence Data: Fig. 8e ECLC5 intracranial, individual animals
LUAD-0057AS1 PDX = assay: PDX efficacy study; details: 50 mg/kg QD
ECLC5 xenografts = assay: Subcutaneous xenograft efficacy study; details: 100 mg/kg QD
[21] = Mus musculus, BaF3, Ba/3-KIF5B-RET-G810C
[22] = end of study, individual tumors

## CO[C@]1(C(=O)N[C@@H](C)c2ccc(-n3cc(F)cn3)nc2)CC[C@H](c2nc(C)cc(Nc3cc(C)[nH]n3)n2)CC1 [Pralsetinib]
[1]
  % Inhibiton TRKA: 40.8%
[2]
  % Inhibiton YES: 37.6%
[3]; 17 nM
  % Inhibiton RET: 96.7%
[4]; 17 nM
  % Inhibiton PDGFRβ: 69.8%
[5]; 17 nM
  % Inhibiton FGFR1: 57%
[6]; 17 nM
  % Inhibiton FGFR2: 29.4%
[7]; 17 nM
  % Inhibiton FGFR3: 34.3%
[8]
  % Inhibiton KDR: 27.4%
[9]; 17 nM
  % Inhibiton FLT3: 73.3%
[10]
  % Inhibiton JAK3: 72.3%
[11]; 17 nM
  % Inhibiton DDR1: 72.1%
[12]; Ba/3-KIF5B-RET-G810C
  GI50: 44.4 nM
[12]; [21]
  GI50: 66.9 nM
[13]; Ba/3-KIF5B-RET-V804L
  GI50: 10.6 nM and 6.67 nM and 4.32 nM
[14]; 0.01 nM
  raw viability signal (Source Data Fig. 3b-c): 15373.7 and 12510.4 and 10530.7 and 16787.4
[14]; 0.1 nM
  raw viability signal (Source Data Fig. 3b-c): 15070.3 and 13088.9 and 11587.4 and 17702.2
[14]; 1 nM
  raw viability signal (Source Data Fig. 3b-c): 15214.6 and 13110.8 and 10795 and 16054.2
[14]; 10 nM
  raw viability signal (Source Data Fig. 3b-c): 6804.19 and 10276.4 and 9347.81 and 15758.2
[14]; 100 nM
  raw viability signal (Source Data Fig. 3b-c): 3516.93 and 4294.46 and 3038.53 and 6985.58
[14]; 1000 nM
  raw viability signal (Source Data Fig. 3b-c): 2132.67 and 2668.84 and 1165.86 and 3483.36
[14]; 10000 nM
  raw viability signal (Source Data Fig. 3b-c): 830.793 and 1030.6 and 876.114 and 1589.72
[14]
  IC50: 35 nM

## COc1ccc(CN2C3CC2CN(c2ccc(-c4cc(OCC(C)(C)O)cn5ncc(C#N)c45)cn2)C3)cn1 [Selpercatinib]
[15]
  % Inhibiton CHK1: 15.2%
[3]; 22 nM
  % Inhibiton RET: 98.6%
[4]; 22 nM
  % Inhibiton PDGFRβ: 21.7%
[5]; 22 nM
  % Inhibiton FGFR1: 21.4%
[16]
  % Inhibiton FLT1: 45.4%
[6]; 22 nM
  % Inhibiton FGFR2: 44.8%
[7]; 22 nM
  % Inhibiton FGFR3: 35.9%
[9]; 22 nM
  % Inhibiton FLT3: 52.5%
[17]
  % Inhibiton EPHB1: 36.2%
[18]
  % Inhibiton TYRO3: 38.2%
[11]; 22 nM
  % Inhibiton DDR1: 18%
[19]
  % Inhibiton EPHA7: 26.3%
[12]; Ba/3-KIF5B-RET-G810C
  GI50: 201 nM and 181 nM
[12]; [21]
  GI50: 233 nM
[13]; Ba/3-KIF5B-RET-V804L
  GI50: 8.67 nM and 7.06 nM
[13]; Mus musculus, BaF3, Ba/3-KIF5B-RET-V804L
  GI50: 5.67 nM
[14]; 0.01 nM
  raw viability signal (Source Data Fig. 3b-c): 18093.2 and 9060.84 and 18084.5
[14]; 0.1 nM
  raw viability signal (Source Data Fig. 3b-c): 17267.5 and 9270.44 and 17759.2
[14]; 1 nM
  raw viability signal (Source Data Fig. 3b-c): 17188.9 and 9066.79 and 17837.1
[14]; 10 nM
  raw viability signal (Source Data Fig. 3b-c): 6462.76 and 8147.32 and 16191.8
[14]; 100 nM
  raw viability signal (Source Data Fig. 3b-c): 3445.11 and 2694.56 and 6209.19
[14]; 1000 nM
  raw viability signal (Source Data Fig. 3b-c): 2899.6 and 1772.22 and 5277.83
[14]; 10000 nM
  raw viability signal (Source Data Fig. 3b-c): 2192.17 and 1006.02 and 4021.33
[14]
  IC50: 26 nM
[20]; 10 mg per kg BID
  median survival time: 99 d of treatment
[20]; 10 mg/kg BID
  Area Under Curve Mean: 27186332000
[20]; 10 mg/kg BID, treatment day 0 (=1)
  Luminescence Data: 1
[20]; 10 mg/kg BID, treatment day 5, day 0 = 1, 10 mg/kg
  Luminescence Data: 1.5865 and 1.821 and 1.255 and 0.4814 and 3.25 and 0.8886
[20]; 10 mg/kg BID, treatment day 12, day 0 = 1, 10 mg/kg
  Luminescence Data: 3.019 and 2.275 and 2.308 and 0.7742 and 2.674 and 1.142
[20]; 10 mg/kg BID, treatment day 18, day 0 = 1, 10 mg/kg
  Luminescence Data: 4.468 and 13.8627 and 3.677 and 17.2275 and 4.61 and 2.3303
[20]; 10 mg/kg BID, treatment day 26, day 0 = 1, 10 mg/kg
  Luminescence Data: 4.838 and 8.783 and 2.8 and 90.8154 and 2.049 and 2.4586
[20]; 10 mg/kg BID, treatment day 33, day 0 = 1, 10 mg/kg
  Luminescence Data: 19.3932 and 14.9637 and 7.347 and 180.944 and 3.353 and 5.483
[20]; 10 mg/kg BID, treatment day 40, day 0 = 1, 10 mg/kg
  Luminescence Data: 20.6751 and 16.1418 and 17.1097 and 476.137 and 5.8 and 4.798
[20]; 10 mg/kg BID, treatment day 46, day 0 = 1, 10 mg/kg
  Luminescence Data: 53.1577 and 52.4694 and 35.0274 and 881.545 and 19.3617 and 18.0494
[20]; 10 mg/kg BID, treatment day 55, day 0 = 1, 10 mg/kg
  Luminescence Data: 200.4 and 271.183 and 155.59 and 1935.62 and 78.0003 and 75.6827
[20]; 10 mg/kg BID, treatment day 61, day 0 = 1, 10 mg/kg
  Luminescence Data: 323.18 and 414.363 and 232.604 and 1527.04 and 186.289 and 64.6294
[20]; 10 mg/kg BID, treatment day 68, day 0 = 1, 10 mg/kg
  Luminescence Data: 561.802 and 676.257 and 207.714 and 1673.82 and 333.171 and 210.62
[20]; 10 mg/kg BID, treatment day 75, day 0 = 1, 10 mg/kg
  Luminescence Data: 570.505 and 1484.59 and 792.807 and 4751.93 and 432.014 and 174.469
[20]; 10 mg/kg BID, treatment day 82, day 0 = 1, 10 mg/kg
  Luminescence Data: 999.294 and 1867.47 and 955.043 and 3557.94 and 547.305 and 464.239

## COc1cc2c(Nc3ccc(Br)cc3F)ncnc2cc1OCC1CCN(C)CC1 [Vandetanib]
[20]; 50 mg/kg BID
  Area Under Curve Mean: -890991750
LUAD-0057AS1 PDX
  Area Under Curve of tumor growth, Mean: -2007
LUAD-0057AS1 PDX; day 0, individual animals
  Tumor volume: 143.69 mm3 (3×) and 139.24 mm3 (2×) and 136.86 mm3 and 132.84 mm3 and 124.41 mm3
LUAD-0057AS1 PDX; day 3, individual animals
  Tumor volume: 79.85 mm3 and 78.99 mm3 (2×) and 80.35 mm3 and 89.72 mm3 and 82.12 mm3 and 83.53 mm3 (2×)
LUAD-0057AS1 PDX; day 7, individual animals
  Tumor volume: 65.45 mm3 (5×) and 66.76 mm3 (2×) and 69.46 mm3
LUAD-0057AS1 PDX; day 10, individual animals
  Tumor volume: 52.07 mm3 (2×) and 58.99 mm3 and 57.83 mm3 (3×) and 56.67 mm3 and 49.83 mm3
LUAD-0057AS1 PDX; day 14, individual animals
  Tumor volume: 52.07 mm3 (2×) and 55.52 mm3 and 57.83 mm3 (2×) and 56.67 mm3 and 49.83 mm3
LUAD-0057AS1 PDX; day 19, individual animals
  Tumor volume: 0 mm3
LUAD-0057AS1 PDX; day 23, individual animals
  Tumor volume: 0 mm3
LUAD-0057AS1 PDX; [22]
  Change in Tumor Volume: -100%
ECLC5 xenografts
  Area Under Curve of tumor growth, Mean: -1273
ECLC5 xenografts; day 0, individual animals
  Tumor volume: 83.83 mm3 (2×) and 88.56 mm3 and 87.03 mm3
ECLC5 xenografts; day 4, individual animals
  Tumor volume: 55.4 mm3 (2×) and 45.5 mm3 and 53.01 mm3 and 50.68 mm3
ECLC5 xenografts; day 7, individual animals
  Tumor volume: 42.25 mm3 and 37.7 mm3 and 44.53 mm3 and 41.37 mm3 and 39.37 mm3
ECLC5 xenografts; day 11, individual animals
  Tumor volume: 38.54 mm3 and 37.7 mm3 and 44.53 mm3 and 33.69 mm3 and 31.89 mm3
ECLC5 xenografts; day 14, individual animals
  Tumor volume: 36.02 mm3 and 36.86 mm3 and 35.19 mm3 and 28.86 mm3 and 23.59 mm3
ECLC5 xenografts; day 19, individual animals
  Tumor volume: 34.35 mm3 and 31 mm3 and 35.19 mm3 and 28.86 mm3 and 18.85 mm3
ECLC5 xenografts; day 22, individual animals
  Tumor volume: 0 mm3 (4×) and 29.39 mm3
ECLC5 xenografts; day 25, individual animals
  Tumor volume: 0 mm3
ECLC5 xenografts; [22]
  Change in Tumor Volume: -100%
